In brackets after ≈: the same amount, converted by molar mass. Several values for one entry are separate records, joined by “and”; a condition that tells them apart may be missing. Equal values may be shown once.
How the values were obtained:
B. cinerea [1] = assay: Spray treatment of tomato plants with hexanoic acid potassium salt, B. cinerea inoculation; assay type: in vivo, Botrytis cinerea; details: for % inhibition of infection versus control: 72 h
Experimental: Hexanoic acid potassium salt was provided by preparing a mole-to-mole solution of hexanoic acid with K2CO3. A concentrated solution was prepared, adjusted to pH 6, and then dilutions were performed in order to provide in-use concentrations, namely, 20 mM, 10 mM, 6 mM and 3 mM.
The plants were treated with the formed salt by spray application and then left to dry for 30 minutes. Afterwards, treated leaves, which were previously incubated for 2 h in Gamborg medium supplemented with sucrose and phosphate, were inoculated with 5 μl of a suspension containing 10^6 spores/ml of B. cinerea, and then stored in a high-humidity chamber at 25° C. for 72 h.
The infection diameter was measured and, finally, the germination percentage was determined.

B. cinerea [2] = assay: Hexanoic acid root application in soil cultivation, protection of Arabidopsis plants against B. cinerea; assay type: in vivo, Botrytis cinerea
Experimental: (§1) Experiments were performed with 5-week-old Arabidopsis plants cultivated in soil. Two weeks after germination, the plants were transplanted into single pots and kept at a temperature of 20° C. day/18° C. night and 8.5 h light cycle for 24 h and 60% relative humidity (RH).
(§2) The plants were treated with different concentrations of hexanoic acid (0.6 mM, 0.8 mM and 1 mM) and inoculated with 6 μl of 2.5×10^4 spores/mL Botrytis cinerea and 2×10^6 spores/mL Alternaria brassicicola.
(§3) Sampling was performed at 48, 72, 96 and 120 hours after inoculation.

B. cinerea spores = assay: Direct antimicrobial effect in vitro: spore germination, mycelium growth, MIC/MFC in PDB; assay type: cell-based, Botrytis cinerea
Experimental: Test mixture contained 4×10^6 conidia/ml PDB (potatodextrose broth, Difco, Detroit, Mich., USA). Treatments (hexanoic acid and heptanoic acid) were added to PDB from stock solutions in order to obtain the different concentrations to be used (0.06 to 30 mM). Medium pH was adjusted to 3.6-5.5 using HCl or NaOH. One ml of each mixture was dispensed into sterile 24-well microplates and then incubated at 20° C. under gentle stirring. Percentage of germinated spores was calculated after 20 h incubation by staining with 0.1% lacto-fucshin (1:1) followed by microscopic observation of 100 spores. Spores were considered to be germinated when the length of germ tube was equal to or greater than spore. For assessment of efficacy in long-term treatments, test culture was left for a 7-day incubation period under previously described conditions, and mycelium development was assessed as follows: 3 ml of each culture were vacuum-filtered through pre-weighed nitrocellulose filters (Millipore, ref. HAWP02500). The filters were dried at 85° C. until weight was constant at room temperature.
For measurement of treatment effects on mycelium growth, 9×10^6 spores were inoculated to a final volume of 150 ml PDB. After 20 h incubation, spores were examined for germination by microscopic analysis, then treatments were added, and pH was adjusted to 5.5. Cultures were incubated at 20° C. under gentle stirring. After 96 h, mycelium growth was measured by determining dry weight, as described herein. […] After MIC determination, minimum fungicidal concentration (MFC) was measured as follows. After 20 h incubation, an aliquot of the cultures, in which no growth had been detected, was taken, then washed three times and added to a fresh medium without added treatment. After 20 h incubation, under previously described conditions, the germination percentage was estimated. MFC is the minimum concentration of test compound at which microorganisms are not recovered.

Pseudomonas syringe = assay: Induced resistance in Arabidopsis thaliana against Pseudomonas syringe; assay type: in vivo
Botrytis cinerea = assay: Post-harvest treatment: combined inoculation of hexanoic acid and Botrytis cinerea spores into tomato fruits; assay type: in vivo; details: combined inoculation with spores, preliminary studies
Experimental: Preliminary studies were also performed on the application of hexanoic acid for post-harvest treatment.

B. cinerea [3] = assay: Hexanoic acid root application in soil cultivation, protection of tomato plants against B. cinerea; assay type: in vivo, Botrytis cinerea; details: control: water
Experimental: (§4) Experiments were performed with 4-week-old tomato plants (Cv. Ailsa Craig) in hydroponic cultivation. Before initiation of treatment, the plants were maintained in hydroponic cultivation for 1 week for habituation under such cultivation conditions. Treatment comprised the addition of hexanoic acid to a nutrient solution (Hoagland solution) at the following concentrations: 0.06 mM, 0.6 mM, 3 mM, 6 mM, 16 mM and 20 mM, pH was adjusted to 6. After 48 hours of treatment, the leaflets of the third and fourth true leaves were inoculated with 5 μl of a suspension containing 10^6 conidia B. cinerea/ml. Spores had previously been incubated in Gamborg medium (Duchefa Biochemie, The Netherlands) supplemented with sucrose and phosphate, over a period of 2 h. Spores were inoculated in this medium. For each treatment, 10 plants were used, which were kept under humidity- and temperature-controlled conditions (80% RH, 21° C.). Sampling was performed at 48, 72, 96 and 120 hours after inoculation.
Plants were cultivated in soil and the solutions of hexanoic acid, at different concentrations, were prepared and applied in the same manner as that described above. Control was water.

A. Brassicicola = assay: Hexanoic acid root application in soil cultivation, protection of Arabidopsis plants against A. Brassicicola; assay type: in vivo, Alternaria brassicicola; details: 0.8 mM
Experimental: as §1, §2, §3

B. cinerea [4] = assay: Spray application of hexanoic acid on tomato plants against B. cinerea; assay type: in vivo, Botrytis cinerea; details: for % inhibition of invention versus control: spray application, tomato plants
Peronospora parasitica = assay: Induced resistance in Arabidopsis thaliana against Peronospora parasitica; assay type: in vivo
B. cinerea [5] = assay: Hexanoic acid root application in hydroponic cultivation, protection of tomato plants against B. cinerea; assay type: in vivo, Botrytis cinerea; details: control: water
Experimental: as §4

CCCCCC(=O)[O-].[K+] [Hexanoic acid potassium salt]
% inhibition of infection versus control (B. cinerea [1]; 6 mM): 52.1% | % inhibition of infection versus control (B. cinerea [1]; 10 mM): 61.3% | % inhibition of infection versus control (B. cinerea [1]; 20 mM, listed as potassium salt, potassium salt): 80% | % inhibition of infection versus control (B. cinerea [1]; 20 mM, potassium salt): 80.3% | % inhibition of infection versus control (B. cinerea [1]; 3M): 49.8% | inhibition at 3000 µM (B. cinerea [1]; Botrytis cinerea, 3 mM, read-out: inhibition of fungal infection): ~50%

CCCCCC(=O)O [hexanoic acid]
% inhibition of infection versus control (B. cinerea [2]; 0.6 mM): 10% | % inhibition of infection versus control (B. cinerea [2]; 0.8 mM): 28% | % inhibition of infection versus control (B. cinerea [2]; 1 mM): 38% | concentration from which spore germination is significantly decreased / inhibited (B. cinerea spores; B. cinerea spores in vitro): ≥ 3 mM | concentration that entirely inhibits germination (B. cinerea spores; B. cinerea spores in vitro): 16 mM | MFC (B. cinerea spores; Botrytis cinerea, 20 h, read-out: minimum fungicidal concentration (MFC)): 16 mM (≈ 1860 µg/mL) | reversibility of the inhibitor effect after spore washing (B. cinerea spores; spores treated at MFC, treatment removed by washing): irreversible fungicidal effect | mycelium development in already germinated spores (B. cinerea spores; treatment added after germination): inhibits mycelium development | induced resistance (Pseudomonas syringe): induced resistance | infection rate of treated fruits (Botrytis cinerea): significant decrease in the infection rate | % inhibition of infection versus control (B. cinerea [3]; 0.06 mM): 60.15% | % inhibition of infection versus control (B. cinerea [3]; 0.6 mM): 49.77% | % inhibition of infection versus control (A. Brassicicola; time after inoculation 48): 54.5% | % inhibition of infection versus control (A. Brassicicola; time after inoculation 72): 40.5% | % inhibition of infection versus control (A. Brassicicola; time after inoculation 96): 6.3% | % inhibition of invention versus control (B. cinerea [4]; 3 mM): 7.63% | % inhibition of invention versus control (B. cinerea [4]; 16 mM): 67% and 66.85% | % inhibition of invention versus control (B. cinerea [4]; 20 mM): 81% and 81.47% | curative effect in plants already inoculated (B. cinerea [4]; plants already inoculated with B. cinerea, preliminary results): restrains the progress of necrosis | induced resistance (Peronospora parasitica): induced resistance | % inhibition of infection versus control (B. cinerea [5]; 0.06 mM): 35.57% | % inhibition of infection versus control (B. cinerea [5]; 0.6 mM): 48.90% | % inhibition of infection versus control (B. cinerea [5]; 3 mM): 64.06% | % inhibition of infection versus control (B. cinerea [5]; 6 mM): 61.98% | % inhibition of infection versus control (B. cinerea [5]; 16 mM): 63.52% | % inhibition of infection versus control (B. cinerea [5]; 20 mM): 53.60%

CCCCCCC(=O)O [heptanoic acid]
concentration from which spore germination is significantly decreased / inhibited (B. cinerea spores; B. cinerea spores in vitro): ≥ 6 mM | effect on spore germination compared with hexanoic acid (B. cinerea spores; B. cinerea spores in vitro): the same at the same concentration range | germ tube development (B. cinerea spores; B. cinerea spores in vitro): entirely prevents germ tube development

Reference: patent publication US20100080860A1, “Application of short-chain monocarboxylic acids for crop protection” (UNIVERSITAT JAUME I, priority 2005, published 2010)
